The supplement of paper PMC10307832

What was measured:
Test in all cases: relative viability (nuclei count vs DMSO), 5 days (fraction); higher = more cells survive
[1] = compound: O=S(=O)(c1ccccc1)N(CC(F)(F)F)c1ccc(C(O)(C(F)(F)F)C(F)(F)F)cc1 + CC(=O)Nc1cccc(-n2c(=O)n(C3CC3)c(=O)c3c(Nc4ccc(I)cc4F)n(C)c(=O)c(C)c32)c1 [Trametinib] (partner 0.02 µM)
Summary of the method: (§1)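 Values are medians from duplicate plates. Each reflects relative viability, defined as the nuclei count of treated wells over that of vehicle wells. Lung cancer cell lines in 1536-well plates were pin-tool dosed one day after seeding with one drug alone or with a fixed anchor-drug dose plus five library-drug doses (not always all listed) in √10 steps, then fixed, stained and imaged at 4× after 5 days.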

[2] = compound: O=S(=O)(c1ccccc1)N(CC(F)(F)F)c1ccc(C(O)(C(F)(F)F)C(F)(F)F)cc1 + CS(=O)(=O)N1CCN(Cc2cc3nc(-c4cccc5[nH]ncc45)nc(N4CCOCC4)c3s2)CC1 [Pictilisib] (partner 1 µM)
Summary of the method: as §1

[3] = compound: C1=CC2=C(C=CC(=C2)C=C3C(=O)NC(=NCC4=CC=CS4)S3)N=C1 [RO-3306] + CS(=O)(=O)CCNCc1ccc(-c2ccc3ncnc(Nc4ccc(OCc5cccc(F)c5)c(Cl)c4)c3c2)o1 [Lapatinib] (partner 2 µM)
Summary of the method: as §1

[4] = compound: C1=CC2=C(C=CC(=C2)C=C3C(=O)NC(=NCC4=CC=CS4)S3)N=C1 [RO-3306] + N=C(N)NC(=N)NCCc1ccccc1 [Phenformin] (partner 250 µM)
Summary of the method: as §1

| Cell Line | relative viability ([1]; first compound 0.8 µM) | relative viability ([1]; first compound 2.53 µM) | relative viability ([1]; first compound 8 µM) | relative viability ([2]; first compound 0.8 µM) | relative viability ([2]; first compound 2.53 µM) | relative viability ([2]; first compound 8 µM) | relative viability ([3]; first compound 0.01 µM) | relative viability ([3]; first compound 0.03162 µM) | relative viability ([3]; first compound 0.1 µM) | relative viability ([3]; first compound 0.3162 µM) | relative viability ([3]; first compound 1 µM) | relative viability ([4]; first compound 0.01 µM) | relative viability ([4]; first compound 0.03162 µM) | relative viability ([4]; first compound 0.1 µM) | relative viability ([4]; first compound 0.3162 µM) | relative viability ([4]; first compound 1 µM) |
| --- | --- | --- | --- | --- | --- | --- | --- | --- | --- | --- | --- | --- | --- | --- | --- | --- |
| NCI-H647 | 0.587 | 0.379 | 0.352 | 0.323 | 0.345 | 0.372 | 1.45 | 0.881 | 0.974 | 1.32 | 0.783 | 0.682 | 0.304 | 0.449 | 0.582 | 0.392 |
| NCI-H650 | 1.1 | 0.983 | 0.782 | 0.913 | 0.842 | 0.885 | 0.867 | 0.728 | 0.774 | 1.06 | 1.01 | 0.408 | 0.411 | 0.445 | 0.467 | 0.457 |
| NCI-H661 | 0.677 | 0.574 | 0.533 | 0.389 | 0.398 | 0.427 | 0.412 | 0.469 | 0.532 | 0.536 | 0.605 | 0.302 | 0.281 | 0.268 | 0.247 | 0.282 |
| NCI-H727 | 0.358 | 0.368 | 0.375 | 0.758 | 0.261 | 0.353 | 0.869 | 0.647 | 0.789 | 0.845 | 0.972 | 0.535 |  | 0.502 | 0.458 | 0.576 |
| NCI-H838 | 0.604 | 0.474 | 0.596 | 0.46 | 0.403 | 0.642 | 1.02 | 0.6 | 0.951 | 1.08 | 0.902 | 0.756 | 0.442 | 0.521 | 0.653 | 0.538 |
| NCI-H1355 | 0.456 | 0.427 | 0.382 | 0.415 | 0.389 | 0.491 | 1.15 | 0.926 | 0.973 | 1.04 | 0.886 | 0.429 |  | 0.516 | 0.422 | 0.404 |
| NCI-H1395 | 1.13 | 1 | 0.965 | 0.569 | 0.562 | 0.635 | 0.817 | 0.925 | 0.824 | 1.08 | 0.826 | 0.377 | 0.479 | 0.421 | 0.46 | 0.459 |
| NCI-H1437 | 0.538 | 0.36 | 0.432 | 0.374 | 0.327 | 0.412 | 0.835 | 0.543 | 0.788 | 0.794 | 0.772 | 0.317 | 0.261 | 0.308 | 0.297 | 0.316 |
| NCI-H1650 | 0.513 | 0.645 | 0.53 | 0.69 | 0.588 | 0.534 | 0.595 | 0.632 | 0.695 | 1.03 | 0.683 | 0.419 | 0.397 | 0.38 | 0.358 | 0.293 |
| NCI-H1651 | 0.853 | 0.867 | 0.739 | 0.681 | 0.598 | 0.598 | 0.839 | 0.648 | 0.77 | 0.972 | 0.644 | 0.363 | 0.254 | 0.341 | 0.338 | 0.251 |
| NCI-H1666 | 0.902 | 0.845 | 0.704 | 0.434 | 0.418 | 0.398 | 0.593 | 0.407 | 0.609 | 0.61 | 0.457 | 0.561 | 0.55 | 0.515 | 0.54 | 0.552 |
| NCI-H1734 | 0.711 | 0.65 | 0.664 | 0.549 | 0.48 | 0.429 | 1.06 | 0.834 | 1.03 | 1.07 | 0.808 | 0.355 | 0.276 | 0.344 | 0.409 | 0.368 |
| NCI-H1755 | 0.769 | 0.661 | 0.815 | 0.376 | 0.361 | 0.382 | 1.2 | 1.04 | 1.03 | 1.04 | 1.01 | 0.65 | 0.62 | 0.63 | 0.622 | 0.544 |
| NCI-H1792 | 0.407 | 0.303 | 0.287 | 0.191 | 0.184 | 0.165 | 0.971 |  | 0.881 | 0.903 | 0.499 | 0.196 |  | 0.156 | 0.289 | 0.259 |
| NCI-H1793 | 0.33 | 0.295 | 0.29 | 0.366 | 0.344 | 0.277 | 0.794 | 0.409 | 0.641 | 0.753 | 0.636 | 0.346 | 0.347 | 0.397 | 0.366 | 0.315 |
| NCI-H1915 | 0.303 | 0.261 | 0.255 | 0.965 | 1.1 | 1.13 | 1.07 | 0.973 | 0.969 | 0.945 | 0.446 | 0.405 | 0.31 | 0.358 | 0.348 | 0.377 |
| NCI-H1944 | 0.448 | 0.389 | 0.432 | 0.3 | 0.341 | 0.357 | 0.774 | 0.674 | 0.802 | 0.909 | 0.545 | 0.206 | 0.182 | 0.2 | 0.168 | 0.194 |
| NCI-H1975 | 0.341 | 0.338 | 0.316 | 0.28 | 0.264 | 0.249 | 1.05 | 0.559 | 0.787 | 0.919 | 0.752 | 0.412 | 0.392 | 0.378 | 0.405 | 0.384 |
| NCI-H1993 | 0.554 | 0.457 | 0.478 | 0.772 | 0.782 | 1.07 |  | 0.747 | 0.74 | 0.795 | 0.839 | 0.483 | 0.552 | 0.503 | 0.517 | 0.499 |
| NCI-H2009 | 0.259 | 0.246 | 0.289 | 0.814 | 0.751 | 0.783 | 0.805 | 0.887 | 0.867 | 1.07 | 0.872 | 0.52 | 0.455 | 0.49 | 0.483 | 0.494 |
